The record followed here is US12318452B2, “Degraders of WEE1 kinase” (DANA-FARBER CANCER INSTITUTE, INC., priority 2018, dated 2025).

As usually defined, the IC50 is the concentration that inhibits the measured activity by half.

In test [1] the target is PLK1 (Homo sapiens, UniProt P53350). Briefly: Z′-LYTE kinase activity assay for PLK1. The note with it: Km ATP, average of two replicates ± SD. The format is biochemical. Details: purchased Life Technologies (Invitrogen) commercial assay service. On the procedure:
(§1) LanthaScreen™ assays were conducted for Wee1 in a 10-point dose response as performed in the commercial assay service by Life Technologies™. Z′-LYTE™ assays were conducted for PLK1 as performed in the commercial assay service by Life Technologies™ in a 10-point dose response using Km ATP concentrations.
The selectivity of Wee1 degradation was then assessed by performing multiplexed mass spectrometry (MS)-based proteomics in MOLT4 cells treated with 100 nM of compound 13 for 2 hours (Donovan et al., Elife 7:e38430 (2018)).

The subject of test [2] is MOLT4 cells (parental, wild type). Briefly: CellTiter-Glo cell viability, 72 hours. The format is cell-based. On the procedure:
The indicated cell lines were plated in flat bottom 384-well plates (Corning® cat #3570). MOLT4 cells were plated at a density of 3,000 cells per well in 50 μL media, while OVCAR8, COV362, and Kuramochi cells were plated at a density of 750 cells per well in 50 μL media. Cells were treated the next day (except for MOLT4 cells, which were treated the same day as plating) with 0.1 μL of the indicated compounds in a four-fold dilution series using the Janus pinner. Cells were incubated with compounds for 72 hours at 37° C. 5% CO2. Anti-proliferative effects were then assessed by CellTiter-Glo® Luminescent Cell Viability Assay (Promega™ cat #G7570) according to the manufacturer's standards, measuring luminescence using an EnVision® plate-reader. IC50 values were determined using a non-linear regression curve fit in GraphPad Prism 8. N=4 biological replicates were used for each treatment condition.
MOLT4 cells were plated in a 384-well plate at 5,000 cells per well in 50 μL media (RPMI+10% FBS+1% Penn/Strep) and treated with 0.1 μL of the candidate compounds in four-fold dilution series using the Janus pinner. Cells were incubated with compounds for 72 hours at 37° C. 5% CO2. Anti-proliferative effects of these compounds were assessed 72 hours after compound addition using CellTiter-Glo® (Promega, cat #G7571). All proliferation assays were performed in biological quadruplicate. […] Effects upon cell viability for compound 13 in the MOLT4 WT cells are therefore likely driven in part by Wee1 inhibition, and in part by CRBN-mediated Wee1 degradation. […] Degradation of Wee1 with compound 21 was mediated by VHL.

Test [3] concerns pCDK1 Y15. Briefly: Downstream signalling immunoblot in MOLT4 cells (pCDK1 Y15, cleaved PARP, γH2Ax). Format: cell-based. The note with it: MOLT4 cells. On the procedure: Whole cell lysates for immunoblotting were prepared by pelleting cells from each cell line at 4° C. (300 g) for 5 minutes. The resulting cell pellets were washed 1× with ice-cold PBS and then resuspended in RIPA lysis buffer (Sigma, cat #R0278) supplemented with protease and phosphatase inhibitor tablets (Roche cat #4906845001). Lysates were clarified at 14,000 rpm for 15 minutes at 4° C. prior to quantification by BCA assay (Pierce™, cat #23225). Whole cell lysates were loaded into Bolt 4-12% Bis-Tris Gels (Thermo Fisher, cat #NW04120BOX) and separated by electrophoreses at 95 V for 1.5 hours. The gels were transferred to a nitrocellulose membrane using the iBlot® Gel Transfer at P3 for 7 minutes (Thermo Fisher, cat #IB23001) and then blocked for 1 hour at room temperature in Odyssey® blocking buffer (LICOR® Biosciences, cat #927-50010). Membranes were probed using antibodies against the relevant proteins at 4° C. overnight in 20% Odyssey® Blocking Buffer in 1×TBST. Membranes were then washed three times with 1×TBST (at least 5 minutes per wash) followed by incubation with the IRDye® goat anti-mouse (LICOR®, cat #926-32210) or goat anti-rabbit (LICOR®, cat #926-32211) secondary antibody (diluted 1:10,000) in 20% Odyssey® Blocking Buffer in 1×TBST for 1 hour at room temperature. After three washes with 1×TBST (at least 5 minutes per wash), the immunoblots were visualized using the ODYSSEY® Infrared Imaging System (LICOR®).
MOLT4 cells were plated at 1.5 million cells per well in a 6-well plate, with 3 mL of media per well. Cells were then immediately treated with the indicated concentration of the indicated compound and incubated for the indicated amount of time. Cells were collected by transferring each well to a 15 mL conical, centrifuging (1000 rpm for 3 min), then washing the cell pellet 2× with cold PBS. Each cell pellet was then lysed in 100 μL of RIPA lysis buffer (+protease/phosphatase inhibitors). Samples were normalized and prepped in 4×LDS+10% β-mercaptoethanol and boiled for 5 min at 95° C. Lysates were probed for specified proteins by western blotting using the Bolt® system (Life Technologies™)
The effects of targeted Wee1 degradation on the cell cycle were evaluated. Wee1 is required for the temporal regulation of CDK1 at the G2/M cell-cycle checkpoint, and Wee1 loss therefore […] via activation of CDK1. Following loss of Wee1 activity, cells are expected to enter mitosis before completing DNA repair, ultimately resulting in excessive unrepaired DNA damage, mitotic catastrophe, and apoptosis (Beck et al., Mol. Cell Biol. 32:4226-4236 (2012)).
Background: Immunoblotting shows a protein as a band on a membrane.

In test [4] the test system is MOLT4 cells. Briefly: Cell cycle analysis by propidium iodide staining. The format is cell-based. The protocol:
MOLT4 cells were plated at 1.5 million cells per well in a 6-well plate, with 3 mL of media per well. Immediately after plating, cells were treated with the indicated concentrations of the indicated compound. At the indicated time points, cells were collected by transferring each well to a 15 mL conical, centrifuging (1000 rpm for 3 min), and then washing the cell pellet 3× with cold PBS. Cell pellets were then fixed with 1 mL cold 80% ethanol in PBS at 4° C. overnight. The cell pellets were then washed by adding 1 mL of PBS and then centrifuging (1500 rpm for 5 minutes), followed by aspiration of the PBS/ethanol mix. Cells were resuspended in cell cycle staining solution (100 μg/mL of RNAse A (Roche, 10109169001) and 50 μg/mL propidium iodide (Life Technologies™, P1304MP), diluted in PBS, and incubated for 10 minutes at room temperature. Cell cycle data was acquired by flow cytometry on a Guava® easyCyte™ flow cytometer (Millipore™) using the InCyte™ software. Data was analyzed using FlowJo®. N=3 biological replicates were used for each treatment condition.

In test [5] the test system is OVCAR8 cells. Briefly: Synergy experiment, CellTiter-Glo co-treatment for 72 hours. Format: cell-based. (ATP-based viability assays read luminescence as a measure of living cells.)
Test [6] addresses Wee1 (Homo sapiens, UniProt P30291). Put plainly: LanthaScreen FRET-based biochemical binding assay for Wee1. As to conditions: LanthaScreen Binding activity assay; average of two replicates ± SD. The protocol:
as §1

Chain of PLK1 (P53350 whole entry): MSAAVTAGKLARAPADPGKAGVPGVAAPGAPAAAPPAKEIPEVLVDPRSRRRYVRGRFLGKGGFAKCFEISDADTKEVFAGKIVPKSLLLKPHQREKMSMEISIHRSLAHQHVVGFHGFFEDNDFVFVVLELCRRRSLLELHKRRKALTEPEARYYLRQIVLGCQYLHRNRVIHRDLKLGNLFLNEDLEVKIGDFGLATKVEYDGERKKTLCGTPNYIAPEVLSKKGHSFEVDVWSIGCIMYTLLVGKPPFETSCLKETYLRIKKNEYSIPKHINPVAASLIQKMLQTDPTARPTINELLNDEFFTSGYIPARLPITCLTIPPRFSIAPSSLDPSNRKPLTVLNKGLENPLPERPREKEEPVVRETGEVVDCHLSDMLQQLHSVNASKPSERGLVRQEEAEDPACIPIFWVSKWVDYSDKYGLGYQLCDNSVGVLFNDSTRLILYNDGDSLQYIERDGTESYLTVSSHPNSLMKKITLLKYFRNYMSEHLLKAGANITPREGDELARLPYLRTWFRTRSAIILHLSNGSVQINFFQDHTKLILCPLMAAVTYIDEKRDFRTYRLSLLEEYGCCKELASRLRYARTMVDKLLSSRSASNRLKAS
Chain of Wee1 (P30291 whole entry): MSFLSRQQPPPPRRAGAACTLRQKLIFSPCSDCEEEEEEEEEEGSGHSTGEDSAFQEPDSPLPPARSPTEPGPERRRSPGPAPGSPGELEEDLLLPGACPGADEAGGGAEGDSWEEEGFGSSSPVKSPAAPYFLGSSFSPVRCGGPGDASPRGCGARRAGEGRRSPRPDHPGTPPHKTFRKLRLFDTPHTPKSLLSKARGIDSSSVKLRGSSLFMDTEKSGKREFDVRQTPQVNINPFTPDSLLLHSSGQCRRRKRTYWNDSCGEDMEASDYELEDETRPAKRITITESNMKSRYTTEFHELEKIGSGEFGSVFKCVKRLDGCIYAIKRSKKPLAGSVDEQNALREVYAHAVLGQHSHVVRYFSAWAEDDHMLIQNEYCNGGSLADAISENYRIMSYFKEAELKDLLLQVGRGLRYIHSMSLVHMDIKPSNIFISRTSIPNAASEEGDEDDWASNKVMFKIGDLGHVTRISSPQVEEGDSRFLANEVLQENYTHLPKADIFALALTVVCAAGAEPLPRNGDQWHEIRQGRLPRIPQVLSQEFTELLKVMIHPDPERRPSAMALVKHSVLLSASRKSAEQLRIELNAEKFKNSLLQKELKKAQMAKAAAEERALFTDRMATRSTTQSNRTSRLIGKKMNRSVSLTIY

For `C=CCn1c(=O)c2cnc(Nc3ccc(N4CCN(C)CC4)cc3)nc2n1-c1cccc(C(C)(C)O)n1` [AZD1775, 2-allyl-1-[6-(1-hydroxy-1-methylethyl)pyridin-2-yl]-6-{[4-(4-methylpipera-zin-1-yl)phenyl]amino}-1,2-dihydro-3H-pyrazolo[3,4-d]pyrimidin-3-one, reference compound], the IC50 in test [1] turned out to be 212 ± 12 nM; in test [2] (Homo sapiens, MOLT-4, 72 hours, read-out: Antiproliferative IC50) it was 800 nM. Besides, in test [3] (100 nM, 24-hr), the “Downstream signalling changes (pCDK1 Y15, PARP cleavage, γH2Ax)” value is “did not produce any noticeable changes”. In addition, the “Treatment necessary to induce the same downstream changes as 100 nM of compound 13” value in test [3] (24-hr) turned out to be 1 µM. In test [4] (100 nM, 24-hr, MOLT4 cells), the “Effect on the cell cycle” value is “did not appreciably affect the cell cycle”. In test [4] (24-hr, MOLT4 cells), the “Dose needed to elicit the same cell cycle changes as 100 nM of compound 13” value turned out to be 1 µM. In test [4] (CRBN−/− MOLT4 cells, 24 hours), the “Cell cycle effects in CRBN−/− cells” value is reported as “unchanged”.
Consider `Nc1cccc2c1C(=O)N(C1CCC(=O)NC1=O)C2=O` (stereo not shown) [Pomalidomide, reference compound], for which the “Synergy with AZD1775” value in test [5] (72-hr co-treatment with AZD1775) is “not synergistic”. Moreover, in test [5] (72-hr co-treatment with Olaparib), the “Synergy with Olaparib” value is reported as “not synergistic”. Also, the IC50 in test [1] and in test [6] was more than 10000 nM each time. Also, the Antiproliferative activity entry in test [2] (72-hr) was “no detectable antiproliferative activity”. Moreover, in test [3] (1 μM, 24 hours), the “Effect on phosphorylation of CDK1 Y15, apoptosis, DNA damage” value is recorded as “did not affect phosphorylation of CDK1 Y15, apoptosis, or levels of DNA damage”.
